Experimental findings from patent US10730874B2 (Shire Human Genetic Therapies, Inc., priority 2018, dated 2020) are described below.

A value given as a limit tells only on which side of the number the result lay.

One assay deals with human activated kallikrein enzyme (plasma kallikrein) (Homo sapiens (Human), UniProt P03952). Briefly: Inhibition of human activated plasma kallikrein, fluorogenic peptide substrate assay, 500 pM enzyme format. It counts as biochemical.
Sequence of human activated kallikrein enzyme (plasma kallikrein) (P03952 391-638): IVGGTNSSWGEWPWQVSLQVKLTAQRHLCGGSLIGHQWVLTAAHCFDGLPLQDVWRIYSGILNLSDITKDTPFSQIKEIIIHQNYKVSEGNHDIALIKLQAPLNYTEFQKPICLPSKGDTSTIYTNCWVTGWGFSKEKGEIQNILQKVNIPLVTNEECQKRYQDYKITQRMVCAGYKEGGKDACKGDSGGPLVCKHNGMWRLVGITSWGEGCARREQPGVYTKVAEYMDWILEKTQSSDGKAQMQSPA
Sequence of human activated kallikrein enzyme (plasma kallikrein) (P03952 20-390 partner): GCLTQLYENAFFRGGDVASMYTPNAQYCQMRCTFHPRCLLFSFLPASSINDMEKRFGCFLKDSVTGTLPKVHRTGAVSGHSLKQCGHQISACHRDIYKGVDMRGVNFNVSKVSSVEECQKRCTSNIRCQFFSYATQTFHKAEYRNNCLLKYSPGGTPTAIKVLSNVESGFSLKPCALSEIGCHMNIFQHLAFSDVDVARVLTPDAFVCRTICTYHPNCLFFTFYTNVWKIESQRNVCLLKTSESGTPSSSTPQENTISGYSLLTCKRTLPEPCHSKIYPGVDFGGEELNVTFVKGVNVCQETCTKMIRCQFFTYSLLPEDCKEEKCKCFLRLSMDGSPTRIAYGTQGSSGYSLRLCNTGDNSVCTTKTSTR
Details: not given
The method, boiled down: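 Buffer 20 mM Tris pH 7.5, EDTA, NaCl, PEG-400, Triton X-100; 300 uM Pro-Phe-Arg-AMC; enzyme–inhibitor preincubation 30 min RT. Format one: 500 pM kallikrein, 10 min RT reaction; format two: 5 pM kallikrein, 18 h RT reaction. Fluorescence read at 460 nm (380 nm excitation).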
Regarding `O=C(NCc1ncn2ccc(Cl)cc12)c1cn(Cc2cn3cc(C4CC4)ccc3n2)c2cccnc12` [Example I-29, N-((7-chloroimidazo[1,5-a]pyridin-1-yl)methyl)-1-((6-cyclopropylimidazo[1,2-a]pyridin-2-yl)methyl)-1H-pyrrolo[3,2-b]pyridine-3-carboxamide], the 50% effective concentration (EC50) (as a rule, the concentration needed to bring the measured effect to its halfway point) was in the range of 10 to 100 nM.

The same assay, now with this note: 500 pM activated kallikrein enzyme, 300 uM Pro-Phe-Arg-7-amido-4-methylcoumarin substrate, 30 min preincubation, 10 min at RT; read-out: Primary Dose Response Assay: Average EC50.
For `COC(=O)C1CCN(c2cc(C3CC3)nn3cc(Cn4cc(C(=O)NCc5ncn6ccc(Cl)c(F)c56)nn4)nc23)C1` (centres unmarked) [Example I-266, methyl 1-(2-((4-(((7-chloro-8-fluoroimidazo[1,5-a]pyridin-1-yl)methyl)carbamoyl)-1H-1,2,3-triazol-1-yl)methyl)-6-cyclopropylimidazo[1,2-b]pyridazin-8-yl)pyrrolidine-3-carboxylate], the EC50 is under 1 nM.

In the case of `CCOC(=O)CCc1nn(Cc2cn3cc(C4CC4)ccc3n2)cc1C(=O)NCc1ncn2ccc(Cl)cc12` [Example I-93, ethyl 3-(4-(((7-chloroimidazo[1,5-a]pyridin-1-yl)methyl)carbamoyl)-1-((6-cyclopropylimidazo[1,2-a]pyridin-2-yl)methyl)-1H-pyrazol-3-yl)propanoate], the EC50 is under 1 nM.

As for `O=C(NCc1ncn2cc(F)c(Br)cc12)c1cnn(Cc2cn3cc(C4CC4)ccc3n2)c1` [Example I-151, N-((7-bromo-6-fluoroimidazo[1,5-a]pyridin-1-yl)methyl)-1-((6-cyclopropylimidazo[1,2-a]pyridin-2-yl)methyl)-1H-pyrazole-4-carboxamide], the EC50 lay within 10 to 100 nM.

In the case of `O=C(O)CCn1c(Cn2cc(C(=O)NCc3ncn4ccc(Cl)c(F)c34)nn2)cc2cc(C3CC3)ccc21` [Example I-251b, 3-(2-((4-(((7-chloro-8-fluoroimidazo[1,5-a]pyridin-1-yl)methyl)carbamoyl)-1H-1,2,3-triazol-1-yl)methyl)-5-cyclopropyl-1H-indol-1-yl)propanoic acid], the EC50 was under 1 nM.

Turning to `O=C(NCc1ncn2ccc(Cl)c(F)c12)c1cn(Cc2nc3ccc(C4CC4)cn3c2F)nn1` [Example I-240, N-((7-chloro-8-fluoroimidazo[1,5-a]pyridin-1-yl)methyl)-1-((6-cyclopropyl-3-fluoroimidazo[1,2-a]pyridin-2-yl)methyl)-1H-1,2,3-triazole-4-carboxamide], the EC50 was under 1 nM.

With `O=C(NCc1ncn2ccc(Cl)c(F)c12)c1nnc(Cc2cn3nc(C4CC4)ccc3n2)o1` [Example I-156, N-((7-chloro-8-fluoroimidazo[1,5-a]pyridin-1-yl)methyl)-5-((6-cyclopropylimidazo[1,2-b]pyridazin-2-yl)methyl)-1,3,4-oxadiazole-2-carboxamide], the EC50 is under 1 nM.

Turning to `O=C(NCc1ncn2ccc(Cl)c(F)c12)c1coc(Cc2cn3cc(C4CC4)ccc3n2)n1` [Example I-196, N-((7-chloro-8-fluoroimidazo[1,5-a]pyridin-1-yl)methyl)-2-((6-cyclopropylimidazo[1,2-a]pyridin-2-yl)methyl)oxazole-4-carboxamide], the EC50 is 1 to 10 nM.

On to `N#Cc1cccc2nc(Cn3cc(C(=O)NCc4ncn5ccc(Br)cc45)cn3)cn12` [Example I-55, N-((7-bromoimidazo[1,5-a]pyridin-1-yl)methyl)-1-((5-cyanoimidazo[1,2-a]pyridin-2-yl)methyl)-1H-pyrazole-4-carboxamide], for which the EC50 fell in the range of 10 to 100 nM.

For the compound `O=C(NCc1ncn2ccc(Cl)cc12)c1cnn(Cc2cn3cc(C4CC4)cc(C4COC4)c3n2)c1` [Example I-132, N-((7-chloroimidazo[1,5-a]pyridin-1-yl)methyl)-1-((6-cyclopropyl-8-(oxetan-3-yl)imidazo[1,2-a]pyridin-2-yl)methyl)-1H-pyrazole-4-carboxamide], the EC50 is under 1 nM.

Consider `Cn1c(Cn2cc(C(=O)NCc3ncn4ccc(Cl)c(F)c34)nn2)cc2cc(C3CC3)ccc21` [Example I-233, N-((7-chloro-8-fluoroimidazo[1,5-a]pyridin-1-yl)methyl)-1-((5-cyclopropyl-1-methyl-1H-indol-2-yl)methyl)-1H-1,2,3-triazole-4-carboxamide], for which the EC50 lay within 1 to 10 nM.

In the case of `O=C(NCc1ncn2ccc(Cl)c(F)c12)c1cn(Cc2cn3cc(C4CC4)cc(C(F)F)c3n2)nn1` [Example I-192, N-((7-chloro-8-fluoroimidazo[1,5-a]pyridin-1-yl)methyl)-1-((6-cyclopropyl-8-(difluoromethyl)imidazo[1,2-a]pyridin-2-yl)methyl)-1H-1,2,3-triazole-4-carboxamide], the EC50 was under 1 nM.

With `O=C(NCc1ncn2ccc(Br)cc12)c1cnn(Cc2cn3c(Cl)c(Br)ccc3n2)c1` [Example I-40, 1-((6-bromo-5-chloroimidazo[1,2-a]pyridin-2-yl)methyl)-N-((7-bromoimidazo[1,5-a]pyridin-1-yl)methyl)-1H-pyrazole-4-carboxamide], the EC50 is under 1 nM.

For the compound `O=C(NCc1ncn2ccc(Cl)c(F)c12)c1cn(Cc2cc3cc(C4CC4)cc(N4CCCC4=O)n3n2)nn1` [Example I-262, N-((7-chloro-8-fluoroimidazo[1,5-a]pyridin-1-yl)methyl)-1-((5-cyclopropyl-7-(2-oxopyrrolidin-1-yl)pyrazolo[1,5-a]pyridin-2-yl)methyl)-1H-1,2,3-triazole-4-carboxamide], the concentration giving a half-maximal response (EC50) is under 1 nM.

Turning to `O=C(NCc1ncn2ccc(Cl)cc12)c1cn(Cc2cn3cc(C4CC4)ccc3n2)nn1` [Example I-80, N-((7-chloroimidazo[1,5-a]pyridin-1-yl)methyl)-1-((6-cyclopropylimidazo[1,2-a]pyridin-2-yl)methyl)-1H-1,2,3-triazole-4-carboxamide], the EC50 is under 1 nM.

`O=C(NCc1ncn2ccc(Cl)c(F)c12)c1nnc(C(F)(F)c2cn3cc(C4CC4)ccc3n2)o1` [Example I-243, N-((7-chloro-8-fluoroimidazo[1,5-a]pyridin-1-yl)methyl)-5-((6-cyclopropylimidazo[1,2-a]pyridin-2-yl)difluoromethyl)-1,3,4-oxadiazole-2-carboxamide]: the EC50 lay within 1 to 10 nM.

Take `O=C(NCc1ncn2ccc(Br)c(F)c12)c1cn(Cc2cn3nc(C4CC4)ccc3n2)nn1` [Example I-139, N-((7-bromo-8-fluoroimidazo[1,5-a]pyridin-1-yl)methyl)-1-((6-cyclopropylimidazo[1,2-b]pyridazin-2-yl)methyl)-1H-1,2,3-triazole-4-carboxamide]: the EC50 was under 1 nM.

For the compound `O=C(NCc1ncn2ccc(Br)cc12)c1cnn(Cc2cn3cc(C(F)(F)F)ccc3n2)c1` [Example I-19, N-((7-bromoimidazo[1,5-a]pyridin-1-yl)methyl)-1-((6-(trifluoromethyl)imidazo[1,2-a]pyridin-2-yl)methyl)-1H-pyrazole-4-carboxamide], the EC50 lay in the range of 1 to 10 nM.

In the case of `O=C(NCc1ncn2ccc(Cl)c(F)c12)c1nnn(Cc2cn3cc(C4CC4)ccc3n2)n1` [Example I-283, N-((7-chloro-8-fluoroimidazo[1,5-a]pyridin-1-yl)methyl)-2-((6-cyclopropylimidazo[1,2-a]pyridin-2-yl)methyl)-2H-tetrazole-5-carboxamide], the EC50 was under 1 nM.

In the case of `CCOC(=O)c1nncn1-c1cc(C2CC2)cn2cc(Cn3cc(C(=O)NCc4ncn5ccc(Cl)c(F)c45)nn3)nc12` [Example I-248, ethyl 4-(2-((4-(((7-chloro-8-fluoroimidazo[1,5-a]pyridin-1-yl)methyl)carbamoyl)-1H-1,2,3-triazol-1-yl)methyl)-6-cyclopropylimidazo[1,2-a]pyridin-8-yl)-4H-1,2,4-triazole-3-carboxylate], the EC50 is under 1 nM.

Take `CC1(C)CC1c1ccn2cc(Cn3cc(C(=O)NCc4ncn5ccc(Br)cc45)cn3)nc2c1` (centres unmarked) [Example I-49, N-((7-bromoimidazo[1,5-a]pyridin-1-yl)methyl)-1-((7-(2,2-dimethylcyclopropyl)imidazo[1,2-a]pyridin-2-yl)methyl)-1H-pyrazole-4-carboxamide]: the EC50 is 10 to 100 nM.

Take `O=C(NCc1ncn2ccc(Cl)c(F)c12)c1cn(Cc2cn3nc(C4CC4)ccc3n2)nn1` [Example I-150, N-((7-chloro-8-fluoroimidazo[1,5-a]pyridin-1-yl)methyl)-1-((6-cyclopropylimidazo[1,2-b]pyridazin-2-yl)methyl)-1H-1,2,3-triazole-4-carboxamide]: the EC50 was under 1 nM.

With `CN(C)CCOCc1cc(C2CC2)cn2cc(Cn3cc(C(=O)NCc4ncn5ccc(Cl)c(F)c45)nn3)nc12` [Example I-299, N-((7-chloro-8-fluoroimidazo[1,5-a]pyridin-1-yl)methyl)-1-((6-cyclopropyl-8-((2-(dimethylamino)ethoxy)methyl)imidazo[1,2-a]pyridin-2-yl)methyl)-1H-1,2,3-triazole-4-carboxamide], the EC50 is under 1 nM.

For `COC(=O)c1cc(C(=O)NCc2ncn3ccc(Cl)c(F)c23)cn1Cc1cn2cc(C3CC3)ccc2n1` [Example I-270a, methyl 4-(((7-chloro-8-fluoroimidazo[1,5-a]pyridin-1-yl)methyl)carbamoyl)-1-((6-cyclopropylimidazo[1,2-a]pyridin-2-yl)methyl)-1H-pyrrole-2-carboxylate], the EC50 is 1 to 10 nM.

Turning to `Cc1nncn1-c1cc(C2CC2)cn2cc(Cn3cc(C(=O)NCc4ncn5ccc(Cl)c(F)c45)nn3)nc12` [Example I-249, N-((7-chloro-8-fluoroimidazo[1,5-a]pyridin-1-yl)methyl)-1-((6-cyclopropyl-8-(3-methyl-4H-1,2,4-triazol-4-yl)imidazo[1,2-a]pyridin-2-yl)methyl)-1H-1,2,3-triazole-4-carboxamide], the EC50 was under 1 nM.

Consider `O=C(NCc1ncn2ccc(Cl)cc12)c1cn(Cc2cn3cc(C4CC4)ccc3n2)nc1Cc1nn[nH]n1` [Example I-126, 3-((2H-tetrazol-5-yl)methyl)-N-((7-chloroimidazo[1,5-a]pyridin-1-yl)methyl)-1-((6-cyclopropylimidazo[1,2-a]pyridin-2-yl)methyl)-1H-pyrazole-4-carboxamide], for which the EC50 was under 1 nM.
